These results are taken from ChEMBL document CHEMBL3396983, “Synthesis of erythrocentaurin derivatives as a new class of hepatitis B virus inhibitors” (Bioorg Med Chem Lett, 2015).

The nature of data set [1]: Cytotoxicity against human HepG2(2.2.15) cells after 72 hrs by MTT assay. In kind it is cell-based.
Data set [2] deals with Hepatitis B virus. In words: Inhibition of HBV DNA replication in HepG2(2.2.15) cells exposed to fresh medium supplemented with compound every other day for additional 5 days by real-time PCR-fluorescent probing method. The data set is classed as functional, organism-based. The note with it: HepG2 2.2.15, 120 h.
Data set [3] concerns Hepatitis B virus. In words: Inhibition of HBV HBsAg secretion in HepG2(2.2.15) cells after 72 hrs by ELISA method. The data set is classed as functional, organism-based. Particulars: HepG2 2.2.15, 72 h.
For data set [4], the system named is Hepatitis B virus. Put plainly: Inhibition of HBV HBeAg secretion in HepG2(2.2.15) cells after 72 hrs by ELISA method. The data set is classed as functional, organism-based. The note with it: HepG2 2.2.15, 72 h.
Data set [5] can be described thus: Selectivity index, ratio of CC50 for human HepG2(2.2.15) cells to IC50 for inhibition of HBV DNA replication in HepG2(2.2.15) cells. The data set is classed as functional.
Data set [6] in a line: Selectivity index, ratio of CC50 for human HepG2(2.2.15) cells to IC50 for inhibition of HBV HBeAg secretion in HepG2(2.2.15) cells. The data set is classed as functional.
Data set [7] in a line: Selectivity index, ratio of CC50 for human HepG2(2.2.15) cells to IC50 for inhibition of HBV HBsAg secretion in HepG2(2.2.15) cells. The data set is classed as functional.

Consider `O=C1/C(=C/c2cccc3c2CCOC3=O)Oc2cc(O)ccc21`, for which the CC50 at 72 h in data set [1] is more than 1.81 mM. In addition, the IC50 was more than 0.45 mM in the data set with Hepatitis B virus [2], more than 1.81 mM with Hepatitis B virus [3] and more than 1.81 mM with Hepatitis B virus [4].

The molecule `O=C(OCc1cccc2c1CCOC2=O)c1ccco1` gave a CC50 at 72 h in data set [1] of more than 2.35 mM. Further, the IC50 was more than 0.84 mM in the data set with Hepatitis B virus [2], more than 2.35 mM with Hepatitis B virus [3] and more than 2.35 mM with Hepatitis B virus [4].

Take `O=C(OCc1cccc2c1CCOC2=O)c1cccnc1`: the CC50 at 72 h in data set [1] is more than 2.7 mM. The 50% inhibitory concentration (IC50) in the data set on Hepatitis B virus [2] is more than 0.68 mM; in the data set on Hepatitis B virus [3], more than 2.7 mM; with Hepatitis B virus [4], more than 2.7 mM.

`CCCCCCCC(=O)OCc1cccc2c1CCOC2=O` gave a CC50 at 72 h in data set [1] of more than 3.45 mM. Besides, the figures for the IC50 with Hepatitis B virus [2], in the data set with Hepatitis B virus [3] and in the data set with Hepatitis B virus [4] were more than 0.86 mM, more than 3.45 mM and more than 3.45 mM, respectively.

For `C[C@H](Cn1cnc2c(N)ncnc21)OCP(=O)(O)O` [TENOFOVIR ANHYDROUS], half-maximal cytotoxicity in data set [1] (CC50 at 72 h) was put at 1.85 mM. Also, the IC50 in the data set with Hepatitis B virus [2] worked out at 0.0005 mM; in the data set with Hepatitis B virus [3] it was 2.32 mM; in the data set with Hepatitis B virus [4], 1.94 mM. For the same molecule, the “Ratio CC50/IC50” value in data set [5] is listed as more than 3571.3.

Molecule `NC(=O)c1cccc2c1CCOC2=O` came in with a CC50 at 72 h in data set [1] of more than 3.29 mM. Further, the IC50 with Hepatitis B virus [2] is 0.82 mM; with Hepatitis B virus [3] it was more than 3.29 mM; with Hepatitis B virus [4], more than 3.29 mM. In addition, in data set [5], the “Ratio CC50/IC50” value was more than 4.

As for `O=C1OCCc2c1cccc2C1OCCO1`, the CC50 at 72 h in data set [1] is more than 2.58 mM. Besides, the values for the IC50 in the data set with Hepatitis B virus [2], in the data set with Hepatitis B virus [3] and in the data set with Hepatitis B virus [4] were 0.57 mM, more than 2.58 mM and 2.18 mM, respectively. For the same molecule, the “Ratio CC50/IC50” value in data set [5] is more than 4.5; in data set [6], more than 1.2.

Take `CC(=O)OCc1cccc2c1CCOC2=O`: the “Ratio CC50/IC50” value in data set [7] is given as more than 1.8. For the same molecule, the CC50 at 72 h in data set [1] was more than 2.43 mM. The IC50 is more than 0.86 mM in the data set on Hepatitis B virus [2], 1.31 mM in the data set with Hepatitis B virus [3] and more than 2.43 mM in the data set with Hepatitis B virus [4].

With `CCC(CC)C(=O)OCc1cccc2c1CCOC2=O`, the CC50 at 72 h in data set [1] worked out at 1.89 mM. Moreover, the results for the IC50 in the data set on Hepatitis B virus [2], in the data set with Hepatitis B virus [3] and in the data set on Hepatitis B virus [4] were more than 0.65 mM, more than 2.59 mM and more than 2.59 mM, respectively.

In data set [1], `O=C1OCCc2c(/C=N/Nc3ccc([N+](=O)[O-])cc3[N+](=O)[O-])cccc21` registered a 50% cytotoxic concentration (CC50) at 72 h of more than 1.65 mM. Also, the IC50 in the data set on Hepatitis B virus [2] was more than 0.41 mM; in the data set on Hepatitis B virus [3] it was more than 1.65 mM; with Hepatitis B virus [4], 1.34 mM. Besides, the “Ratio CC50/IC50” value in data set [6] is more than 1.2.

In data set [1], `O=C1OCCc2c(/C=N\O)cccc21` had a CC50 at 72 h of more than 4 mM. Moreover, the IC50 is 0.36 mM in the data set on Hepatitis B virus [2], more than 4 mM in the data set on Hepatitis B virus [3] and 2.33 mM in the data set on Hepatitis B virus [4]. Besides, the figures for the “Ratio CC50/IC50” value in data set [5] and in data set [6] were more than 11.1 and more than 1.7, respectively.

In the case of `O=C(O)c1cccc2c1CCOC2=O`, the results for the “Ratio CC50/IC50” value in data set [7], in data set [5] and in data set [6] were more than 1.4, more than 11.6 and more than 1.5, respectively. This molecule yielded a CC50 at 72 h in data set [1] of more than 4.54 mM. The IC50 in the data set with Hepatitis B virus [2] was 0.39 mM; in the data set on Hepatitis B virus [3], 3.18 mM; in the data set with Hepatitis B virus [4], 2.95 mM.

`O=Cc1cccc2c1CCOC2=O`: the “Ratio CC50/IC50” value in data set [7] is recorded as 1.4; in data set [5], 2.3; in data set [6] it was 1.5. Moreover, in data set [1], the CC50 at 72 h was 1.76 mM. The IC50 in the data set with Hepatitis B virus [2] is 0.76 mM; in the data set with Hepatitis B virus [3], 1.3 mM; in the data set on Hepatitis B virus [4], 1.14 mM.

Turning to `O=C1OCCc2c(/C=C/c3ccccc3)cccc21`, the CC50 at 72 h in data set [1] was more than 2.43 mM. Also, the IC50 in the data set on Hepatitis B virus [2] was 0.11 mM; with Hepatitis B virus [3], more than 2.43 mM; in the data set with Hepatitis B virus [4], more than 2.43 mM. In addition, the “Ratio CC50/IC50” value in data set [5] was more than 22.1.

`O=C(OCc1cccc2c1CCOC2=O)c1cccc([N+](=O)[O-])c1` yielded a CC50 at 72 h in data set [1] of more than 2.72 mM. In addition, the results for the IC50 with Hepatitis B virus [2], in the data set on Hepatitis B virus [3] and in the data set with Hepatitis B virus [4] were more than 0.68 mM, more than 2.72 mM and more than 2.72 mM, respectively.

For the molecule `O=C1OCCc2c(CO)cccc21`, the “Ratio CC50/IC50” value in data set [7] is more than 1.4; in data set [5] it was more than 22.4; in data set [6], more than 2.6. This molecule displayed a 50% cytotoxic concentration (CC50) at 72 h in data set [1] of more than 3.8 mM. Moreover, the IC50 in the data set with Hepatitis B virus [2] came out at 0.17 mM; in the data set with Hepatitis B virus [3], 2.7 mM; in the data set on Hepatitis B virus [4], 1.46 mM.

Consider `O=C(O)c1ccccc1C(=O)OCc1cccc2c1CCOC2=O`, for which the “Ratio CC50/IC50” value turned out to be 1.8 in data set [7], 1.6 in data set [5] and 2.3 in data set [6]. The midpoint of cytotoxicity in data set [1], the CC50 at 72 h, lay at 0.13 mM. The IC50 in the data set with Hepatitis B virus [2] was determined as 0.084 mM; in the data set with Hepatitis B virus [3] it was 0.072 mM; with Hepatitis B virus [4], 0.056 mM.

In data set [1], `O=C1OCCc2c(/C=C\c3ccccc3)cccc21` returned a CC50 at 72 h of more than 2.16 mM. Further, the values for the IC50 in the data set on Hepatitis B virus [2], with Hepatitis B virus [3] and in the data set with Hepatitis B virus [4] were 0.08 mM, more than 2.16 mM and more than 2.16 mM, respectively. For the same molecule, in data set [5], the “Ratio CC50/IC50” value was more than 27.

As to `O=C(OCc1cccc2c1CCOC2=O)c1cc(=O)c2ccccc2o1`, the “Ratio CC50/IC50” value in data set [7] is 1.1; in data set [5] it was 4.9; in data set [6] it was 1.4. For the same molecule, in data set [1], the CC50 at 72 h is 2.57 mM. Further, the 50% inhibitory concentration (IC50) came out at 0.52 mM in the data set on Hepatitis B virus [2], 2.3 mM in the data set with Hepatitis B virus [3] and 1.81 mM in the data set with Hepatitis B virus [4].

For the molecule `O=C1OCCc2c(COC(=O)C3CCCCC3)cccc21`, the CC50 at 72 h in data set [1] is more than 1.84 mM. Also, the figures for the IC50 in the data set on Hepatitis B virus [2], in the data set on Hepatitis B virus [3] and in the data set with Hepatitis B virus [4] were 0.026 mM, more than 1.84 mM and more than 1.84 mM, respectively. Besides, the “Ratio CC50/IC50” value in data set [5] is more than 70.8.

In turn, `COc1cccc(/C=C/C(=O)OCc2cccc3c2CCOC3=O)c1` displayed a CC50 at 72 h in data set [1] of more than 1.62 mM. Moreover, the IC50 in the data set with Hepatitis B virus [2] is 0.045 mM; in the data set on Hepatitis B virus [3], more than 1.62 mM; in the data set with Hepatitis B virus [4] it was 0.84 mM. Moreover, the “Ratio CC50/IC50” value is more than 36 in data set [5] and more than 1.9 in data set [6].

In data set [1], `CCOCC(=O)OCc1cccc2c1CCOC2=O` registered a CC50 at 72 h of more than 3.68 mM. Further, the IC50 was more than 0.92 mM with Hepatitis B virus [2], more than 3.68 mM in the data set on Hepatitis B virus [3] and more than 3.68 mM in the data set on Hepatitis B virus [4].

As to `N=C(N)c1cccc2c1CCOC2=O`, in data set [1], the midpoint of cytotoxicity, the CC50 at 72 h, lay at 2.05 mM. Also, the IC50 came out at 0.38 mM with Hepatitis B virus [2], 2.24 mM in the data set with Hepatitis B virus [3] and 2.84 mM in the data set on Hepatitis B virus [4]. Besides, the “Ratio CC50/IC50” value in data set [5] stood at 5.4.

Consider `O=C(OCc1cccc2c1CCOC2=O)c1cc2ccccc2o1`, for which the figures for the “Ratio CC50/IC50” value in data set [7] and in data set [5] were less than 1 and 1.5, respectively. In data set [1], it took 0.83 mM to reach half-maximal cytotoxicity (CC50 at 72 h). Besides, the half-inhibitory concentration (IC50) with Hepatitis B virus [2] is 0.54 mM; in the data set on Hepatitis B virus [3], 1.63 mM; in the data set on Hepatitis B virus [4] it was more than 2.67 mM.

The molecule `O=C(OCc1cccc2c1CCOC2=O)c1cc2ccccc2[nH]1` displayed a CC50 at 72 h in data set [1] of more than 2.05 mM. Also, the IC50 in the data set on Hepatitis B virus [2] was 0.077 mM; in the data set on Hepatitis B virus [3] it was more than 2.05 mM; in the data set on Hepatitis B virus [4], more than 2.05 mM. The “Ratio CC50/IC50” value in data set [5] is reported as more than 26.6.

Take `O=C(OCc1cccc2c1CCOC2=O)c1ccc([N+](=O)[O-])cc1`: the CC50 at 72 h in data set [1] is more than 2.26 mM. For the same molecule, the IC50 in the data set on Hepatitis B virus [2] was more than 0.56 mM; with Hepatitis B virus [3], more than 2.26 mM; in the data set on Hepatitis B virus [4], more than 2.26 mM.
